Results reported in patent US9650402B2, “Heterodinuclear platinum-ruthenium complexes, preparation thereof and therapeutic use thereof” (City University of Hong Kong, priority 2015, dated 2017).

What was measured:
A549cisR cells = experiment: MTT cytotoxicity assay, cDDP-resistant A549cisR cells; format: cell-based, human; conditions: 72-h exposure
Procedure: (§1) Human ovarian carcinoma (A2780) and cDDP-resistant A2780 (A2780cisR) cells were cultured in RPMI 1640 with 10% FBS and 100 units penicillin/streptomycin. HeLa cells, adenocarcinomic human alveolar basal epithelial cells (A549) and cDDP-resistant A549 (A549cisR) cells were cultured in DMEM containing 10% FBS and 100 units penicillin/streptomycin. All cells were incubated at 37° C. under 5% CO2. The cDDP-resistant cells, A549cisR and A2780cisR were generated from their parental A549 or A2780 cells. Briefly, A549 or A2780 cells were cultured in complete medium containing 0.5 μg/mL cisplatin at the beginning for the first screening, and the remaining cells were cultured in complete medium containing 1.0 μg/mL cisplatin for at least 4 weeks until the resistance was obtained. An MTT assay was used to evaluate the cytotoxicity of cDDP and the subject heterodinuclear Pt—Ru compounds Ruthplatin-1, 2, 3 and 4 against A2780, A2780cisR, A549, A549cisR and HeLa. The results of this assay are depicted in Table 1 of FIG. 9. […] The results of this assay are depicted in Table 2 of FIG. 10. […] After incubating for 72 h, the original medium was removed and 0.2 mL fresh medium containing 1 mg/mL MTT was added to each well. After staining for 4 h, the medium was replaced by DMSO. The absorbance was tested at 570 and 630 nm. A control was set as medium without compound. […]

[1] = system: A2780, A2780cisR, A549, A549cisR and HeLa; experiment: MTT cytotoxicity assay, all cell lines tested; format: cell-based; conditions: each of the cell lines, 72-h exposure
Procedure: Human ovarian carcinoma (A2780) and cDDP-resistant A2780 (A2780cisR) cells were cultured in RPMI 1640 with 10% FBS and 100 units penicillin/streptomycin. HeLa cells, adenocarcinomic human alveolar basal epithelial cells (A549) and cDDP-resistant A549 (A549cisR) cells were cultured in DMEM containing 10% FBS and 100 units penicillin/streptomycin. All cells were incubated at 37° C. under 5% CO2. The cDDP-resistant cells, A549cisR and A2780cisR were generated from their parental A549 or A2780 cells. Briefly, A549 or A2780 cells were cultured in complete medium containing 0.5 μg/mL cisplatin at the beginning for the first screening, and the remaining cells were cultured in complete medium containing 1.0 μg/mL cisplatin for at least 4 weeks until the resistance was obtained.
An MTT assay was used to evaluate the cytotoxicity of cDDP and the subject heterodinuclear Pt—Ru compounds Ruthplatin-1, 2, 3 and 4 against A2780, A2780cisR, A549, A549cisR and HeLa. The results of this assay are depicted in Table 1 of FIG. 9. […]
For each of these assays, cells were seeded in 96-well plates at a density of 1,500 cells per well (for A2780, A549 and HeLa) or 2,500 cells per well (for A2780cisR and A549cisR) and were incubated till their confluency reached about 30%. […] The absorbance was tested at 570 and 630 nm. […]

A549 cells = experiment: MTT cytotoxicity assay, A549 cells; format: cell-based, human; conditions: 72-h exposure
Procedure: as §1

A2780cisR cells = experiment: MTT cytotoxicity assay, cDDP-resistant A2780cisR cells; format: cell-based, Human; conditions: 72-h exposure
Procedure: as §1

HeLa cells = experiment: MTT cytotoxicity assay, HeLa cells; format: cell-based; conditions: 72-h exposure
Procedure: as §1

Compound | RF (resistant factor) = IC50 in A549cisR/IC50 in A549, compared with cisplatin (A549cisR cells; A549/A549cisR cells) | cytotoxicity in A549cisR cells (compared with cisplatin) (A549cisR cells; A549cisR cells) | IC50 values compared with cDDP [1] | cytotoxicity in A549 cells (compared with cisplatin) (A549 cells) | RF (resistant factor) = IC50 in A2780cisR/IC50 in A2780 (A2780cisR cells) | activity against the proliferation of HeLa cells (HeLa cells)
Cc1ccc(C(C)C)cc1.[NH3+][Pt-2]([NH3+])([OH])([Cl])([Cl])[O]C(=O)CCc1ccc[n+]([Ru-]2[O]C(=O)C(=O)[O]2)c1 [Ruthplatin-4] | decreases | significantly increased cytotoxicity | significantly lower than that of cDDP | significantly increased cytotoxicity | 2.1 | very active
[NH2][Pt]([NH2])([Cl])[Cl] [cDDP, Cisplatin, reference compound] | – | – | – | – | 17.4 | –
